Several values for one entry are separate records, joined by “and”; a condition that tells them apart may be missing. Equal values may be shown once.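 96-well plates; 48 h exposure; 5 concentrations. Endpoints by linear interpolation between flanking doses. Not reached: highest tested concentration assigned. GI50: concentration for 50% inhibition of growth. TGI: concentration producing complete growth inhibition.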
Legend:
Assay in all cases: inhibition of tumour cell growth, NCI panel, 48 h
DMS 114 small cell lung = system: DMS 114 small cell lung
M19-MEL melanoma = system: M19-MEL melanoma
NCI-H23 lung = system: NCI-H23 lung
RPMI-8226 leukemia = system: RPMI-8226 leukemia
SF-268 CNS = system: SF-268 CNS
SK-MEL-5 melanoma = system: SK-MEL-5 melanoma
SN12C renal = system: SN12C renal
UACC-62 melanoma = system: UACC-62 melanoma
BT-549 breast = system: BT-549 breast
KM20L2 colon = system: KM20L2 colon

Structure (SMILES)	TGI (DMS 114 small cell lung)	TGI (M19-MEL melanoma)	TGI (NCI-H23 lung)	TGI (RPMI-8226 leukemia)	TGI (SF-268 CNS)	TGI (SK-MEL-5 melanoma)	TGI (SN12C renal)	TGI (UACC-62 melanoma)	TGI (BT-549 breast)	TGI (KM20L2 colon)	GI50 (BT-549 breast)	GI50 (NCI-H23 lung)	GI50 (RPMI-8226 leukemia)	GI50 (SF-268 CNS)	GI50 (SK-MEL-5 melanoma)	GI50 (SN12C renal)	GI50 (UACC-62 melanoma)
COCC(=O)CP(=O)(OC)OC	> 100 µM	> 100 µM	> 100 µM	> 100 µM	> 100 µM	> 100 µM	> 100 µM	> 100 µM									
CCCCCC(=O)c1ccc2[nH]c3c(C)cc([N+](=O)[O-])c(C)c3c2c1	> 100 µM	> 100 µM	> 100 µM	> 100 µM	> 100 µM	> 100 µM	> 100 µM										
O=C1CSC(/C(=C\c2ccc(Cl)cc2)c2nc3ccccc3[nH]2)=N1		28.8 µM	30.7 µM	> 100 µM	23 µM	24.6 µM	34.2 µM	33.5 µM	36.6 µM	52.1 µM							
COC1OC(CO)C(O)C(O)C1Br (configuration not stated)		> 100 µM	> 100 µM	> 100 µM	> 100 µM	> 100 µM	> 100 µM	> 100 µM		> 100 µM							
O=C(Nc1ccc(F)cc1)c1c(NC(=O)C(F)(F)F)sc2c1CCCCC2			8.82 µM	4.14 µM	88 µM	2.1 µM	8.67 µM	5.19 µM	6.85 µM		2.08 µM	2 µM	0.917 µM	2.28 µM	0.592 µM	1.94 µM	0.585 µM
CC(=O)OC1CC2C(C)(C)C(=O)C=C[C@]2(C)C2CCC3(C)C(c4ccoc4)C(=O)[C@H]4O[C@]43[C@]12C (some centres not stated)	> 100 µM	55.2 µM	50.4 µM	47.3 µM	> 100 µM	32.9 µM	66.1 µM	64.2 µM									
O=C(NCCCNc1cc(-c2cn(-c3ccccc3)nc2-c2cccc(O)c2)ccn1)c1ccccc1			26.6 µM	3.3 µM	> 100 µM	3.12 µM	> 100 µM	12.2 µM	9.47 µM		2.72 µM	3.04 µM	1.06 µM	3.74 µM	1.49 µM	6 µM	3.15 µM
CCOC(=O)C(=Cc1ccccc1[N+](=O)[O-])C(=O)OCC			13.9 µM	18.3 µM	11.5 µM	2.66 µM	11.3 µM	3.39 µM	17.3 µM		5.28 µM	3.35 µM	3.69 µM	3.35 µM	1.33 µM	2.85 µM	1.59 µM
N=C(N=C(N)N)N1CCN(c2ccncc2)CC1			> 1000 µM	> 1000 µM	> 1000 µM	> 1000 µM	> 1000 µM	> 1000 µM	> 1000 µM		> 1000 µM	> 1000 µM	> 1000 µM	> 1000 µM	> 1000 µM	> 1000 µM	> 1000 µM
C(CCC[Te][Te]CCCCCCOC1CCCCO1)CCOC1CCCCO1 (configuration not stated)	25.5 µM		31.1 µM		41.2 µM		29.4 µM	23.6 µM		28.7 µM							
Cc1cc(C)c(C[N+](C)(C)C)c(C)c1C			12.3 µM	15.9 µM	10 µM	2.82 µM	23.4 µM	18.9 µM	7.36 µM		0.619 µM	0.395 µM	0.588 µM	0.364 µM	0.209 µM	0.212 µM	0.538 µM
Nc1ccc2c(c1)NCCN2			> 100 µM	> 100 µM	> 100 µM	46.8 µM	> 100 µM	> 100 µM	> 100 µM								
CC(=O)O[C@H]1CC[C@@]2(C)C(=CC[C@H]3C4=CC=C(C(C)=O)[C@@]4(C)CCC32)C1 (some centres not stated)		> 100 µM		> 100 µM	> 100 µM	40.3 µM	> 100 µM	46.8 µM		> 100 µM							
Cc1nc2ccc(Nc3nc(NCCN4CCOCC4)nc(Nc4ccc(F)cc4)n3)cc2n1Cc1ccccc1			24.8 µM	4.62 µM	33.9 µM	2.98 µM	> 100 µM	6.18 µM	9.33 µM		2.13 µM	3.67 µM	1.74 µM	5.82 µM	1.63 µM	5.57 µM	2.27 µM
OCCSCc1ccccc1			> 100 µM	> 100 µM	> 100 µM	> 100 µM	> 100 µM	> 100 µM	> 100 µM								
COc1cc(/C=C\[N+](=O)[O-])ccc1OCc1ccccc1			5.26 µM	2.73 µM	11.5 µM	3.05 µM	8.42 µM	4.67 µM	3.3 µM		1.58 µM	2.07 µM	0.43 µM	2.83 µM	1.4 µM	2.77 µM	1.7 µM
COc1ccc(-c2cc(/C=C3\C(=O)Nc4ccc(Cl)cc43)[nH]n2)cc1			16.3 µM	18 µM	19.1 µM	23.6 µM	18.2 µM	18.5 µM	19.3 µM		6.85 µM	3.73 µM	4.04 µM	6.48 µM	5.17 µM	5.51 µM	5.56 µM
O=[N+]([O-])c1ccc(N/N=C/c2c(O)ccc3ccccc23)nc1			> 100 µM	> 100 µM	> 100 µM	> 100 µM	> 100 µM	> 100 µM	> 100 µM		39.8 µM	> 100 µM	> 100 µM	4 µM	20.1 µM	48.5 µM	9.82 µM
CC[C@@]1(O)C(=O)NCc2c1cc1n(c2=O)Cc2cc3c(N)cccc3nc2-1			15.1 µM	> 32.1 µM		17.3 µM	35.2 µM	20.2 µM	> 100 µM		17.8 µM	0.942 µM	4.23 µM	0.558 µM	1.23 µM	0.529 µM	1.15 µM
O=c1nc(Nc2cccc(Cl)c2)oc2cc(Cl)oc(=O)c12			23.7 µM	43.1 µM	14.2 µM	54.5 µM	> 100 µM	21.3 µM	95.7 µM		22.5 µM	7.15 µM	4.02 µM	3.69 µM	18.2 µM	10.4 µM	5.79 µM
C=C1C(=O)OC2CC1C(O)C/C(C)=C/CC/C(C)=C/C(O)CC2C (configuration not stated)			7.8 µM	6.23 µM	8.66 µM	15.4 µM	4.83 µM	6.1 µM	6.45 µM								

Structure (SMILES)	TGI (DMS 114 small cell lung)	TGI (M19-MEL melanoma)	TGI (NCI-H23 lung)	TGI (RPMI-8226 leukemia)	TGI (SF-268 CNS)	TGI (SK-MEL-5 melanoma)	TGI (SN12C renal)	TGI (UACC-62 melanoma)	TGI (BT-549 breast)	TGI (KM20L2 colon)	GI50 (BT-549 breast)	GI50 (NCI-H23 lung)	GI50 (RPMI-8226 leukemia)	GI50 (SF-268 CNS)	GI50 (SK-MEL-5 melanoma)	GI50 (SN12C renal)	GI50 (UACC-62 melanoma)
N#Cc1c(-c2ccccc2)cc(-c2ccc(Nc3nc(Nc4ccc(Cl)cc4)nc(Nc4ccc(Cl)cc4)n3)cc2)nc1N			61.4 µM	> 100 µM	19.7 µM	2.78 µM	> 100 µM	45.4 µM	24.2 µM		5.2 µM	6.14 µM	3.81 µM	4.33 µM	1.42 µM	3.37 µM	5.56 µM
Cn1ccn2c3nc4ccccc4nc3c(=O)c(C#N)c12	> 100 µM	> 100 µM	> 100 µM	> 100 µM	> 100 µM	> 13.4 µM	> 100 µM	> 100 µM	> 100 µM								
CO/C1=C\C(C)=C\C(C)C(O)C(C)C/C(C)=C/C=C/C(OC)C(C(C)C(O)C(C)C2(O)CC(O)C(C)C(C(C)C)O2)OC1=O (configuration not stated)	10.3 µM	3.12 µM	15 µM		19.5 µM	0.00177 µM	17.6 µM	0.00785 µM and 0.0254 µM									
COCCOC(=O)NC(=O)Nc1ccc(/C(=N/O)c2ccc(Cl)cc2)cc1			51.4 µM	19 µM	> 100 µM	2.85 µM	59.3 µM	15.8 µM	39.6 µM		0.58 µM	0.221 µM	0.129 µM	0.209 µM	0.0817 µM	0.157 µM	0.109 µM
COc1ccc(/C=C/c2nc(NCCCN(C)C)c3ccccc3n2)cc1			11.5 µM	4.64 µM	4.17 µM	3.27 µM	29.3 µM	25.4 µM	5.01 µM		1.55 µM	5.43 µM	1.78 µM	1.86 µM	1.71 µM	11.8 µM	11.1 µM
Cc1nc2c(n1C(C)(C)C)C(=O)c1ccccc1C2=O		76.5 µM	> 100 µM		> 100 µM	> 100 µM	> 100 µM	> 100 µM		> 100 µM							
Nc1ccc(S(=O)(=O)C23CC4CC(CC(C4)C2)C3)cc1			> 100 µM	> 100 µM	> 100 µM	> 100 µM	> 100 µM	> 100 µM	> 100 µM								
N#Cc1cnc2cc(OC[C@@H](O)CO)c(NC(=O)CC3CSSC3)cc2c1Nc1ccc(OCc2cccc(F)c2)c(Cl)c1			1.51 µM	1.74 µM	0.771 µM	1.43 µM	0.49 µM	1.08 µM	0.523 µM		0.155 µM	0.614 µM	0.557 µM	0.0814 µM	0.743 µM	0.144 µM	0.38 µM
CC(C)c1ccc(C(=O)Nc2sc3c(c2C#N)CCC(=O)C3)cc1			9.57 µM		> 75 µM	2.52 µM	> 100 µM	1.6 µM	3.13 µM		0.306 µM	0.32 µM	0.152 µM	0.432 µM	0.979 µM	0.378 µM	0.318 µM
COc1ccccc1-c1cc(=O)c2ccccc2[nH]1		> 100 µM	> 100 µM	> 100 µM	> 100 µM		> 100 µM	> 100 µM		> 100 µM							
C[C@]1(CO)[C@H]2CC[C@@]34C=C[C@@](CO)(CC[C@H]3[C@]2(C)CC[C@H]1O)C4			> 100 µM	86.6 µM	> 100 µM	32.3 µM	> 100 µM	> 100 µM	> 100 µM								
CC(C)(C)NCc1cc(C(C)(C)C)cc(-c2ccc(Cl)cc2)c1O			29.4 µM	40.5 µM	30.8 µM	29.7 µM	30.3 µM	32 µM	27.9 µM								
O=C(Nc1ccc(Cl)cc1)c1ccc(NC2=C(Cl)C(=O)N(Cc3ccccc3)C2=O)cc1			28.6 µM	12.4 µM	50.2 µM	99.3 µM	25.1 µM	44.3 µM	34.2 µM		15.3 µM	12.9 µM	2.7 µM	17.8 µM	31.1 µM	7.67 µM	17.9 µM
CC(C)c1ccc(/C(C(=O)O)=C(\O)C(=O)O)cc1			> 100 µM	> 100 µM	> 100 µM	> 100 µM	> 100 µM	> 100 µM	> 100 µM								
O=C(c1ccc2ncc(-c3nc(NC4CC4)ncc3F)n2c1)N1CCOCC1			9.68 µM	5.32 µM	7.12 µM	8.53 µM	11.8 µM	3.6 µM	5.29 µM		1.58 µM	2.58 µM	1.98 µM	2.53 µM	2.6 µM	2.52 µM	1.54 µM
CCOc1cc2c(NCCCN(CCO)CCO)ncnc2c(OCC)c1OCC			> 100 µM	> 100 µM	> 100 µM	> 100 µM	> 100 µM	> 100 µM	> 100 µM								
Cc1nc2sc(C(=O)Nc3cccc4ccccc34)c(N)c2cc1C(=O)c1ccccc1			> 50 µM	> 50 µM	> 50 µM	12.4 µM	> 50 µM	> 50 µM	> 50 µM		1.87 µM	3.55 µM	2.46 µM	3.54 µM	1.92 µM	2.98 µM	2.42 µM
O=C(O)CCCCCOc1cccnc1/C=N/NC1=NCCN1		> 100 µM	> 100 µM	> 100 µM	> 100 µM	> 100 µM	> 100 µM	> 100 µM		> 100 µM							
Cn1c(=O)c(Oc2ccccc2F)cc2cnc(NC3CCOCC3)nc21			> 25 µM	> 25 µM	> 25 µM	> 25 µM	> 25 µM	> 25 µM	> 25 µM		> 25 µM	> 25 µM	> 25 µM	> 25 µM	> 25 µM	> 25 µM	> 25 µM
CN(C)N1C(=O)c2ccccc2NC1c1ccccc1 (configuration not stated)			> 100 µM	> 100 µM	> 100 µM	> 100 µM	> 100 µM	> 100 µM	> 100 µM								

From PubChem BioAssay (NCI)
